Our source for the IC50 and EC50 values is ChEMBL document CHEMBL1201862, “PubChem BioAssay data set” (2004).

In general, IC50 refers to the midpoint of a concentration-inhibition curve. As usually defined, the EC50 is the concentration giving half of the maximal effect.

Calls of active or inactive are those of the source.

The target of one experiment is T1, Sentrin-specific protease 6 (Homo sapiens, UniProt Q9GZR1).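 Also: Luminescence-based dose-response confirmatory assay of SENP6 inhibition, following up an ultra-high-throughput screen.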
T1 sequence (Q9GZR1 whole entry): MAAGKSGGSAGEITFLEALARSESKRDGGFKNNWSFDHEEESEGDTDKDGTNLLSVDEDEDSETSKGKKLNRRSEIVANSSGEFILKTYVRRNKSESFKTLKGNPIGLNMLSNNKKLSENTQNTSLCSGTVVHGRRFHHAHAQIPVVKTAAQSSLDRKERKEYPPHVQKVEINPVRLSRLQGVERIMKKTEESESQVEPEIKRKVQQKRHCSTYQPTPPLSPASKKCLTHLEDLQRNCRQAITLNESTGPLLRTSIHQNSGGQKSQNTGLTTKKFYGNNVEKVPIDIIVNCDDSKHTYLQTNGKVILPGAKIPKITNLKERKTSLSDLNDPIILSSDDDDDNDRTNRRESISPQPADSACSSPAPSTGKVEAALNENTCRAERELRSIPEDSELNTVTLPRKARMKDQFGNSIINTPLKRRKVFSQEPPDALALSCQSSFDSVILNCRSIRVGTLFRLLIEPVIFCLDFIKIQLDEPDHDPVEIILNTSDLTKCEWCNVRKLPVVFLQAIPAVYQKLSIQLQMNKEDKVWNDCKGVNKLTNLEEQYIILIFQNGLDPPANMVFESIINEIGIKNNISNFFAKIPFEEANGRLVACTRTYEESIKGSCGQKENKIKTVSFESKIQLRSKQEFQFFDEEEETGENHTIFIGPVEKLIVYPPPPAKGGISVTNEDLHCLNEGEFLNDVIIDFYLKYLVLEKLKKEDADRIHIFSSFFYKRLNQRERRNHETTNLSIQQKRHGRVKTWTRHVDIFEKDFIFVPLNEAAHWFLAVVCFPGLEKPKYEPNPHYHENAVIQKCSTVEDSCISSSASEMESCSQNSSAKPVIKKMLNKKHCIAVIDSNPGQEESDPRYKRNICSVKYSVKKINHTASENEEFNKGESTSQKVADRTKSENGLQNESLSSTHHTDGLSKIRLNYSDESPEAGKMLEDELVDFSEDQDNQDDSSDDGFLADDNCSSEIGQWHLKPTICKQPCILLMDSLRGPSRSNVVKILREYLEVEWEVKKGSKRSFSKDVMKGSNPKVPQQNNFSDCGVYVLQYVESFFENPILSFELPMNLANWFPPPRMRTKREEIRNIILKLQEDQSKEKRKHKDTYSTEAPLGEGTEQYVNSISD
It counts as functional.
Regarding `Cc1ccc(C(=O)c2c(C)oc3c2C(=O)C(=O)c2ccccc2-3)cc1`, the half-maximal inhibitory concentration (IC50) is 4.76 µM (active).
Take `Nc1ccc(Br)c2cccnc12`: the 50% inhibitory concentration (IC50) was 7.46 µM (active).
On the same count and under the same terms, in the case of `Cc1cnc(NC(=O)c2sc3ccccc3c2Cl)s1` it was > 100 µM (inactive); in that of `O=C1C(O)=C/C(=N\c2ccccc2O)c2ccccc21`, 2.95 µM (active).

A further experiment has as its target T2, Protein RecA (Mycobacterium tuberculosis, UniProt P9WHJ3).
T2 sequence (P9WHJ3 whole entry): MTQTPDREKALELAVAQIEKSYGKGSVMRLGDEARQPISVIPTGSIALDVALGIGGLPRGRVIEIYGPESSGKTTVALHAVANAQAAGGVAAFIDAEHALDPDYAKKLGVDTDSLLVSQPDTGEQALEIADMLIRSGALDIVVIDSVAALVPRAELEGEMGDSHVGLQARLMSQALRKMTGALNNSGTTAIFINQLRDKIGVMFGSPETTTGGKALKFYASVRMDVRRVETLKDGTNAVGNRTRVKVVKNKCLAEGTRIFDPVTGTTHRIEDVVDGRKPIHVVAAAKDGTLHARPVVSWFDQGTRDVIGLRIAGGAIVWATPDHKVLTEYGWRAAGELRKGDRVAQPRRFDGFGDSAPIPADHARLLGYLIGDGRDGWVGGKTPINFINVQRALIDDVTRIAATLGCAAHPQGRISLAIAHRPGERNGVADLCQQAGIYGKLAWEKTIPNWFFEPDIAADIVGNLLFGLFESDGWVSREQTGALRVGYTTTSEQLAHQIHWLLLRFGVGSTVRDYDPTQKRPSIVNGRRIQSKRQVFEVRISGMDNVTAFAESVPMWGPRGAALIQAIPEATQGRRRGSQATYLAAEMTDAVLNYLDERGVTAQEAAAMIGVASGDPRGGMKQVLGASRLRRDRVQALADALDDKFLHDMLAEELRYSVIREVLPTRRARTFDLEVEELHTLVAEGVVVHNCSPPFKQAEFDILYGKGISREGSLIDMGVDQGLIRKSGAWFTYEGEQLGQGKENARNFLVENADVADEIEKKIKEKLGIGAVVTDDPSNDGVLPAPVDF
The experiment can be described thus: Fluorescence Cell-Free Homogeneous Dose Retest to Identify Inhibitors of RecA-Intein Splicing Activity. [Related pubchem assays (depositor defined):AID2097, AID2223, AID489010, AID492950]. It counts as functional.
Regarding `Cc1ccc(Nc2cc(C)nn2-c2nc(C)cc(O)n2)cc1`, the half-maximal effective concentration (EC50) was 61.4 µM (active).
With `O=C1C(O)=C/C(=N\c2ccccc2O)c2ccccc21`, the concentration giving a half-maximal response (EC50) is 12.3 µM (active).
Consider `O=C1C(Cl)=C(NCc2cccnc2)C(=O)c2ccccc21`, for which the half-maximal effective concentration (EC50) was 2.17 µM (active).
Take `CN(C)c1ncc(C2=C(Cl)C(=O)C(N3CCCC3)=C(Cl)C2=O)s1`: the EC50 is 3.81 µM (active).
